Results published in patent US9468670B2, “Melatonin-based treatment and diagnosis of bile duct disease” (Texas A&M University System, priority 2011, dated 2016).

Tested on: AANAT
Assay: AANAT morpholino in normal rats with or without CCl4 (liver sections, qPCR, immunoblots)
Format: in vivo, rat
Experimental: Methods: Normal rats were treated for 1 wk with AANAT morpholino (to reduce the biliary expression of AANAT) or scrambled morpholino (1 mg/kg BW/day) by a portal vein catheter before receiving a single dose of mineral oil or CCl4 (0.4 ml by gavage 1:1 in mineral oil/100 gm BW). Two days later, in liver sections the following was evaluated: (i) the hepatic expression of AANAT; and (ii) the percentage of TUNEL-positive cholangiocytes, and IBDM. In total liver tissue, the quantitative expression of AANAT, PCNA, Bax and Bcl-2 was studied by qPCR and immunoblots. In mouse cholangiocyte lines (NMC) stably overexpressing AANAT the expression of AANAT and CLOCK genes, melatonin secretion and biliary growth were studied after 48 hr incubation.

[1] = normal rats vs. scrambled morpholino

With “AANAT Vivo-Morpholino: Vivo-Morpholino sequence of AANAT 5′-GTTCCCCAGCTTTGGAAGTGGTCCC (SEQ ID NO:1), to reduce the biliary expression of AANAT (all phosphorodiamidate morpholino (PMO); Vivo-Morpholino delivery moiety attached, position not given here, further chemistry not fully specified)” the “AANAT expression in liver tissue” value [1] was “decreased”, the “PCNA expression in liver tissue” value [1] was “increased” and the IBDM (normal rats, 1 mg/kg BW/day for 1 wk by portal vein catheter, vs. controls) was “enhanced”. For the same substance, the “Biliary apoptosis in response to CCl4” value (rats, 1 mg/kg BW/day for 1 wk then single dose of CCl4) was “absence”.
